Several values for one entry are separate records, joined by “and”; a condition that tells them apart may be missing. Equal values may be shown once.
Experiments:
[1] = tested on: HS 578 T; test: NCI-60 SRB screen; assay type: cell-based, human; conditions: five dose;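 as to IC50: half-maximal inhibitory concentration read as cell viability unlike GI50 net growth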
[2] = tested on: WI-38 human cell line; test: In vitro cytotoxicity on WI-38 human cell line (MTT); assay type: cell-based; conditions: WI-38 normal human cell line
Description: Cell Line cells were obtained from American Type Culture Collection and were cultured using DMEM (Invitrogen/Life Technologies) supplemented with 10% FBS (Hyclone), 10 µg/ml of insulin (Sigma), and 1% penicillin-streptomycin. All of the other chemicals and reagents were obtained from Sigma or Invitrogen. Plate cells were incubated (cells density 1.2–1.8 × 10,000 cells/well) in a volume of 100 µL complete growth medium and 100 ul of the tested compound per well in a 96-well plate for 24 h before the MTT assay. The cultures were removed from the incubator into a laminar flow hood or other sterile work area followed by the addition of reconstituted MTT in an amount equal to 10% of the culture medium volume, then incubated for an additional 2 h. After the incubation period, cultures were removed from the incubator, and the resulted formazan crystals were dissolved by adding an amount of MTT solubilisation solution [M-8910] equal to the original culture medium volume, then the absorbance at a wavelength of 570 nm was measured. Finally, the IC50 of the tested compound compared to the reference was calculated using GraphPad Prism software.

[3] = tested on: CYP17 enzyme; test: CYP17 enzyme ELISA in mice prostate cancer model; assay type: in vivo; conditions: 5 mg/kg i.p., 5 days a week, ELISA of tissue (Mice testis)
Description: (§1) A total of 16 mice from the TRAMP/FVB background ([…], male, average 45 days, average weight […], mice with prostate cancer) were taken and divided into 2 groups with 8 animals in each group. One group of mice was given a drug in 0.2 ml of DMSO and phosphate-buffered saline (1:10) ratio (5 mg/kg body weight, i.p., 5 days a week). The control group animals were treated with 0.2 ml of DMSO and phosphate-buffered saline (1:10) ratio. A total of eight mice, four animals from each group, were examined at 13 weeks of age, and the remaining animals from each group were examined at 20 weeks for prostate tumour development. Treatment was stopped 24 h before killing the animals.
BioSource 2704060 96 assay kit is a sandwich enzyme immunoassay for in vitro quantitative measurement of CYP17 enzyme activity in mouse tissue homogenates, cell lysates, cell culture supernatant, and other biological fluids. Tested tissues were rinsed in ice-cold PBS to remove excess blood and weighed before homogenisation. The tissues were minced and homogenised in fresh lysis buffer with a glass homogeniser. (catalog: IS007, different lysis buffer needs to be chosen based on subcellular location of the target protein) (w:v = 1:20–1:50, e.g. 1 ml lysis buffer is added in 20–50 mg tissue sample) The resulting suspension was sonicated with an ultrasonic cell disrupter till the solution was clarified. The homogenates were centrifuged for 5 min at 10,000 × g, and the supernatant was collected. An Aliquot was assayed and stored at ≤ −20 °C.
The assay sample and standard were incubated together with CYP-HRP conjugate in an appropriate number of microplates pre-coated with an antibody specific for the CYP17 enzyme for 1 h. After the incubation period, the wells were decanted and washed five times. The wells were then incubated with a substrate for the HRP enzyme. […] Colour intensity was measured spectrophotometrically at 450 nm in a microplate reader. […]
Assay procedures: Wells for a standard, blank, and sample were prepared. […] The absorbance was measured immediately at 450 nm.

[4] = tested on: plasma testosterone; test: Testosterone ELISA assay in mice prostate cancer model; assay type: in vivo
Description: as §1
The BioVendor mouse/rat testosterone ELISA assay is a competitive immunoassay for the measurement of testosterone in rat and mouse serum or plasma based on the principle of competitive binding. An unknown amount of testosterone present in the sample (plasma or serum) and a known amount of testosterone conjugated to horseradish peroxidase compete for the binding sites of testosterone antiserum coated to the wells of a microplate. The sample was incubated with the microplate for 1 h, then washed four times. The HRP substrate solution was added followed by the stop solution. Colour change has been observed, and the optical density was measured at 450 nm.
Assay procedures: Sufficient number of microplate wells were prepared to accommodate standard and samples in duplicates. The standard, sample, and control (10 µL each) were dispensed with new disposable tips into appropriate wells. Incubation buffer 100 µL was dispensed into each well. Afterward, enzyme conjugate (50 µL) was added to each well and incubated for 60 min at room temperature on a microplate mixer. The content of the wells was discarded, and the wells were rinsed 4 times with diluted wash solution (300 µL per well). The substrate solution (200 µL) was added to each well and incubated in the dark without shaking for 30 min. The reaction was stopped by adding a stop solution (2 N hydrochloric acid solution, 50 µL) to each well. The absorbance of each well was determined at 450 nm.

Question: N#CC1C(=O)NC(c2ccccc2[N+](=O)[O-])c2sc3c(F)cccc3c21 (stereo not shown) [Compound 5c, 4-Cyano-8-fluoro-1-(2-nitrophenyl)-1,2-dihydro[1]benzothieno[2,3-c] pyridin-3(4H)-one] was tested. Which GI50 ([1]; Homo sapiens) did it give?
Answer: The GI50 was 18.1 µM.

Question: And the IC50 ([1]; Homo sapiens)?
Answer: Its IC50 is greater than 100 µM.

Question: And the TGI [1]?
Answer: Its TGI is 100 µM.

Question: What about the IC50 [2] of the same molecule?
Answer: Its IC50 is 34.1 µM.

Question: And the “CYP17 enzyme aver. conc.” value [3]?
Answer: The value was 15.8 nM and 15.80 nM and 15.80 ± 0.20 nM.

Question: And the “potency relative to abiraterone (testosterone inhibition)” value [4]?
Answer: Its value is 1.1 folds.

Question: What about the “Plasma testosterone aver. conc.” value ([4]; 5 mg/kg i.p., 5 days a week, ELISA, 5 mg/kg) of the same molecule?
Answer: The value was 12.26 nM and 12.26 ± 0.17 nM.
